Results taken from PubChem BioAssay (NCI).
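Cultured in 96-well plates, cells were exposed to test compound for 48 hours across five concentrations. GI50 is the concentration that inhibits growth by half. TGI is the concentration that stops growth completely.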

Assays:
Experiment in all cases: NCI anticancer screen, dose series, 48 h
DU-145 prostate = tested on: DU-145 prostate
HCT-15 colon = tested on: HCT-15 colon
KM12 colon = tested on: KM12 colon
MDA-MB-231 breast = tested on: MDA-MB-231 breast
NCI-H226 lung = tested on: NCI-H226 lung
NCI-H522 lung = tested on: NCI-H522 lung
SF-295 CNS = tested on: SF-295 CNS
SK-MEL-5 melanoma = tested on: SK-MEL-5 melanoma
SNB-19 CNS = tested on: SNB-19 CNS
UACC-62 melanoma = tested on: UACC-62 melanoma

SMILES | GI50 (DU-145 prostate) [µM] | TGI (DU-145 prostate) [µM] | GI50 (HCT-15 colon) [µM] | TGI (HCT-15 colon) [µM] | GI50 (KM12 colon) [µM] | TGI (KM12 colon) [µM] | GI50 (MDA-MB-231 breast) [µM] | TGI (MDA-MB-231 breast) [µM] | GI50 (NCI-H226 lung) [µM] | TGI (NCI-H226 lung) [µM] | GI50 (NCI-H522 lung) [µM] | TGI (NCI-H522 lung) [µM] | GI50 (SF-295 CNS) [µM] | TGI (SF-295 CNS) [µM] | GI50 (SK-MEL-5 melanoma) [µM] | TGI (SK-MEL-5 melanoma) [µM] | GI50 (SNB-19 CNS) [µM] | TGI (SNB-19 CNS) [µM] | GI50 (UACC-62 melanoma) [µM] | TGI (UACC-62 melanoma) [µM]
COc1cc2c3c(n(CCCNCCNCCCN)c(=O)c2cc1OC)-c1cc2c(cc1C3=O)OCO2 | 4.6 | 17 | 2.24 | 20 | 2.61 | 14.5 | 1.19 | 3.59 | 2.06 | 7.06 | 0.575 | 2.86 | 2.79 | 17.4 | 6.41 | 20.3 | 5.73 | 31.2 | 1.87 | 8.18
Oc1cc(Cl)ccc1Cc1ccc(Cl)cc1O | 10.4 | 23.2 | 8.09 | 20.3 | 14.8 | 28.1 | 11.6 | 36.3 | 24.7 | 57.8 | 3.86 | 15 | 6.34 | 24.6 | 4.48 | 15.8 | 14.3 | 45.1 | 4.9 | 16.3
c1cncc(CNc2ncn[nH]2)c1 | – | > 100 | – | > 100 | – | > 100 | – | > 100 | – | > 100 | – | > 100 | – | > 100 | – | > 100 | – | > 100 | – | > 100
O=[N+]([O-])/C=C/c1ccc([N+](=O)[O-])cc1 | 1.96 | 3.77 | 2.02 | 5.58 | 2.25 | 4.71 | 2.71 | 8.73 | 2.06 | 5.37 | 3.83 | 15 | 6.87 | 24 | 1.76 | 4.51 | 3.53 | 14.9 | 2.09 | 6.15
O=C(/C=C\c1ccc2ccccc2n1)c1cc(Cl)ccc1O | 5.81 | 19.4 | 2.43 | 8.86 | 8.71 | 24.5 | 5.18 | 24.3 | 9.41 | 38.2 | 2.88 | 16 | 10.3 | 44.2 | 13.4 | 37.5 | 10.1 | 24.5 | 7.51 | 21
COc1ccc2c(c1)[C@@]1(C)CCC3c4ccc(O)cc4CCC3C1C2 (stereo not given in full) | 17.6 | 39.7 | 12.3 | 28 | 15.4 | 36.8 | 13.8 | 27.8 | 18.7 | 38.2 | 16.4 | 37.6 | 17.3 | 33.8 | 17 | 33.1 | 16.2 | 30.7 | 17.6 | 32.9
CC(C)=CC1CC(C)C2(CCC3(C)CC4C(C(=O)CC4(C)O)/C(C=O)=C\CC32)O1 (stereo not given) | – | 0.267 | – | 0.105 | – | 0.262 | – | 0.237 | – | 0.147 | – | 0.097 | – | 0.515 | – | 0.588 | – | 0.607 | – | 0.368
